# Results from ChEMBL document CHEMBL1158551, “Click reaction synthesis of carbohydrate derivatives from ristocetin aglycon with antibacterial and antiviral activity” (Bioorg Med Chem Lett, 2010).
# Columns and labels:
# [1] = system: Staphylococcus epidermidis; assay: Antibacterial activity against biofilm positive Staphylococcus epidermidis ATCC 35984; type: functional
# Enterococcus faecalis [2] = assay: Antibacterial activity against vancomycin and teicoplanin-resistant Enterococcus faecalis 15376 expressing VanA gene by broth microdilution method; type: functional
# Influenza B virus [3] = assay: Antiviral activity against influenza B virus assessed as inhibition of viral induced cytopathic effect; type: functional, organism-based
# Influenza B virus [4] = assay: Antiviral activity against influenza B virus assessed as cell viability by cell based MTS assay; type: functional, organism-based
# Staphylococcus aureus [5] = assay: Antibacterial activity against methicillin-[…] Staphylococcus aureus ATCC 29213 by broth microdilution method; type: functional
# Influenza A virus [6] = assay: Antiviral activity against influenza A virus H1N1 assessed as inhibition of viral induced cytopathic effect; type: functional, organism-based
# [7] = system: Staphylococcus epidermidis; assay: Antibacterial activity against Staphylococcus epidermidis by broth microdilution method; type: functional
# Influenza A virus [8] = assay: Antiviral activity against Influenza A virus H3N2 assessed as cell viability by cell based MTS assay; type: functional, organism-based
# Influenza A virus [9] = assay: Antiviral activity against influenza A virus H1N1 assessed as cell viability by cell based MTS assay; type: functional, organism-based
# Influenza A virus [10] = assay: Antiviral activity against Influenza A virus H3N2 assessed as inhibition of viral induced cytopathic effect; type: functional, organism-based
# Enterococcus faecalis [11] = assay: Antibacterial activity against vancomycin-resistant and teicoplanin-sensitive Enterococcus faecalis ATCC 5129 expressing VanB gene by broth microdilution method; type: functional
# Bacillus subtilis = assay: Antibacterial activity against Bacillus subtilis ATCC 6633 by broth microdilution method; type: functional
# Enterococcus faecalis [12] = assay: Antibacterial activity against vancomycin and teicoplanin-sensitive Enterococcus faecalis ATCC 29212 by broth microdilution method; type: functional
# Staphylococcus aureus [13] = assay: Antibacterial activity against methicillin-[…] Staphylococcus aureus ATCC 33591 by broth microdilution method; type: functional
SMILES,MBC [1] [µg/mL],MIC [1] [µg/mL],MIC (Enterococcus faecalis [2]) [µg/mL],EC50 (Influenza B virus [3]) [µM],EC50 (Influenza B virus [4]) [µM],MBC (Staphylococcus aureus [5]) [µg/mL],MIC (Staphylococcus aureus [5]) [µg/mL],EC50 (Influenza A virus [6]) [µM],MBC [7] [µg/mL],MIC [7] [µg/mL],EC50 (Influenza A virus [8]) [µM],EC50 (Influenza A virus [9]) [µM],EC50 (Influenza A virus [10]) [µM],MBC (Enterococcus faecalis [11]) [µg/mL],MIC (Enterococcus faecalis [11]) [µg/mL],MBC (Bacillus subtilis) [µg/mL],MIC (Bacillus subtilis) [µg/mL],MBC (Enterococcus faecalis [12]) [µg/mL],MIC (Enterococcus faecalis [12]) [µg/mL],MBC (Staphylococcus aureus [13]) [µg/mL],also measured
COC(=O)[C@@H]1NC(=O)[C@H]2NC(=O)[C@H](NC(=O)[C@@H]3NC(=O)[C@H]4NC(=O)[C@H](NC(=O)[C@H](n5cc(CO[C@H]6O[C@H](COC(C)=O)[C@@H](O[C@H]7O[C@H](COC(C)=O)[C@@H](OC(C)=O)[C@H](OC(C)=O)[C@H]7OC(C)=O)[C@H](OC(C)=O)[C@H]6OC(C)=O)nn5)c5ccc(O)c(c5)Oc5cc4cc(O)c5C)[C@H](O)c4ccc(cc4)Oc4cc3cc(c4O)Oc3ccc(cc3)[C@H]2O)c2ccc(O)c(c2)-c2c(O)cc(O)cc21,8,4,2,> 100,> 100,4,1,> 100,16,4,> 100,> 100,> 100,256,8,8,8,256,4,4,MBC (Enterococcus faecalis [2]): 256 µg/mL; MIC (Staphylococcus aureus [13]): 1 µg/mL
COC(=O)[C@H]1NC(=O)[C@H]2NC(=O)[C@H](NC(=O)[C@@H]3NC(=O)[C@H]4NC(=O)[C@H](NC(=O)[C@H](N=[N+]=[N-])c5ccc(O)c(c5)Oc5cc4cc(O)c5C)[C@H](O)c4ccc(cc4)Oc4cc3cc(c4O)Oc3ccc(cc3)[C@H]2O)c2ccc(O)c(c2)-c2c(O)cc(O)cc21,64,32,> 256,,,2,2,,8,4,,,,128,64,4,1,16,8,2,MIC (Staphylococcus aureus [13]): 1 µg/mL
NC(=O)c1ncn([C@@H]2O[C@H](CO)[C@@H](O)[C@H]2O)n1 [RIBAVIRIN],,,,4,4.7,,,,,,,11,,,,,,,,,
NC12CC3CC(CC(C3)C1)C2 [AMANTADINE],,,,> 500,> 500,,,20,,,9.2,19,7,,,,,,,,
CC(N)C12CC3CC(CC(C3)C1)C2 (stereo not drawn) [RIMANTADINE],,,,> 500,> 500,,,224,,,5.6,283,4,,,,,,,,
COC(=O)[C@H]1NC(=O)[C@H]2NC(=O)[C@H](NC(=O)[C@@H]3NC(=O)[C@H]4NC(=O)[C@H](NC(=O)[C@H](n5cc(CO[C@@H]6O[C@@H](C)[C@H](O)[C@@H](O)[C@H]6O)nn5)c5ccc(O)c(c5)Oc5cc4cc(O)c5C)[C@H](O)c4ccc(cc4)Oc4cc3cc(c4O)Oc3ccc(cc3)[C@H]2O)c2ccc(O)c(c2)-c2c(O)cc(O)cc21,16,16,16,,,8,8,,32,16,,,,128,64,16,16,256,32,16,MBC (Enterococcus faecalis [2]): 256 µg/mL; MIC (Staphylococcus aureus [13]): 8 µg/mL
